# Measured values from PMC7707092, “Discovery and characterization of ORM‐11372, a novel inhibitor of the sodium‐calcium exchanger with positive inotropic activity” (British Journal of Pharmacology, 2020).
# pIC50: −log10 of the molar value.
# Legend:
# healthy rabbits = assay: Haemodynamics in anaesthetized rabbits; assay type: in vivo, rabbit; design: cardiac relaxation / HR / systolic BP: dose or concentration left out as unconfirmed
# Protocol: All animals were given multiple ascending infusion doses of ORM‐11372; blinding was not possible. Systemic BP (SP) and left ventricular pressure (LVP) values were measured with pressure transducers (SP for femoral artery: Isotec, Hugo Sachs Elektronic, Germany; a miniature pressure transducer Mikro‐Tip transducer SPR‐249, Millar Instruments was inserted into the left ventricle via the right carotid artery). The signal was amplified (DC‐bridge amplifier type 660, Hugo Sachs Elektronik, Germany), digitized (I/O connector block type SCB‐68, National Instruments, USA), recorded, and analysed (IHME 1.0.9, Fision Ltd, Finland). Left ventricular inotropic effect (LV + dP/dt max), relaxation (LV − dP/dt min), and HR values were analysed from LVP signals.
# Male New Zealand white rabbits (Harlan, Netherlands B.V.) were housed individually in polycarbonate cages (Scanbur Number 8 plastic cages with stainless steel door) with aspen bedding (Aspen Bricks M, Tapvei Ky, Kaavi, Finland). The acclimation period before experiments was at least 21 days. Rabbits weighing 2.0–2.3 kg (age 10–12 weeks) were used for haemodynamically assessing ORM‐11372 (no randomization, baseline values as own control). The diet provided to rabbits was SDS Stanrab (P) SQC pelleted (Special Diet Services Ltd, Witham, England). Water was provided ad libitum in polycarbonate bottles (750 ml).
# Rabbits (n = 5) were sedated with i.v. (marginal vein) diazepam (2 mg·kg^−1, Diapam®, Orion Pharma). Anaesthesia was induced with i.v. S‐ketamine (10–20 mg·kg^−1 Ketanest‐S®, Pfizer) and maintained with S‐ketamine i.v. infusion (15–80 mg·kg^−1·h^−1). Animals were placed on a heating table (+38°C), and tracheas were cannulated. Rabbits were ventilated via a rodent ventilator (Ugo Basile 7025, Hugo Sachs Elektronik, Germany; respiratory volume 10 ml·kg^−1, 30 strokes·min^−1 for rabbits). […]
# [1] = molecular target: T1, noradrenaline transporter (Rattus norvegicus, UniProt Q9WTR4); assay: [^3H]noradrenaline uptake into rat hypothalamus synaptosomes; assay type: biochemical
# T1 construct: [^3H]noradrenaline incorporated into rat hypothalamus synaptosomes; from tissue; host or cells: rat hypothalamus synaptosomes
# T1 sequence (Q9WTR4 1-597): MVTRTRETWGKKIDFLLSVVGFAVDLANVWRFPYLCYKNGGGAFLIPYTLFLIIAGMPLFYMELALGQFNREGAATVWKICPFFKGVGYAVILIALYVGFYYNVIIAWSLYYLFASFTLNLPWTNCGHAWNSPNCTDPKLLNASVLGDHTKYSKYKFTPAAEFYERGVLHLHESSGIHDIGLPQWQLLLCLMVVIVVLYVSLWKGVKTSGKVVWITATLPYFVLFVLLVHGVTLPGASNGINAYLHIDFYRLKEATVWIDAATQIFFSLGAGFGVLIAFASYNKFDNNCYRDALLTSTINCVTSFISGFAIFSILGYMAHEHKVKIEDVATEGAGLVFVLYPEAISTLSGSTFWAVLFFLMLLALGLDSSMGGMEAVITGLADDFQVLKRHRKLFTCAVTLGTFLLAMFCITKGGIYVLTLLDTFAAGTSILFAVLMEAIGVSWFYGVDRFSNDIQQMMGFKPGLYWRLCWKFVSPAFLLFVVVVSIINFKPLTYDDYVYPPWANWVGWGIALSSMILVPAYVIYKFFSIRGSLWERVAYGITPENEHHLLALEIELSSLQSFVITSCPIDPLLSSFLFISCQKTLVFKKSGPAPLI
# Protocol: Radioligand binding assays were performed at Eurofins Cerep SA (Celle L'Evescault, France), for testing the inhibition capacity of ORM‐11372 (at 10 μM with two replicates), in over 75 targets. These included receptors (e.g., human A1, A2A, and A3 adenosine receptors; α1 and α2 adrenoceptors; human β1–β3 adrenergic receptors; human D1, D2S, D3, D4.4, and D5 dopamine receptors; EGF and VEGF receptors; human M1–M5 muscarinic ACh receptors; human 5‐HT1A, 5‐HT2A, 5‐HT2B, 5‐HT2C, 5‐HT4e, 5‐HT5A, 5‐HT6, and 5‐HT7 receptors), ion channels (5‐HT3, Ca^2+, ATP‐dependent potassium channel [KATP], voltage‐dependent potassium channel [KV], small‐conductance calcium‐dependent potassium channel [SKCa], Na^+, and Cl^−), and transporters (adenosine, noradrenaline, dopamine, and 5‐HT). Follow‐up functional studies (with five concentrations and two replicates) were performed for 5‐HT2A receptors and noradrenaline transporter. Agonism and antagonism at h5‐HT2A receptors was explored in recombinant HEK 293 cells and intracellular calcium changes were detected using fluorimetry. Noradrenaline uptake was measured by carrying out scintillation counting of [^3H]noradrenaline incorporated into rat hypothalamus synaptosomes.
# [2] = molecular target: T2, L‐type Ca^2+ channel current (I CaL) (Homo sapiens, UniProt Q13936); assay: L‐type calcium current (I CaL), patch‐clamp in hiPSC‐derived cardiomyocytes; assay type: cell-based; settings: hiPSC‐CMs, 0 mV, read-out: inhibition of inward I CaL
# T2 construct: I CaL was recorded from hiPSC‐derived CMs; host or cells: Cor.4U hiPSC-derived cardiomyocytes
# T2 sequence (Q13936 whole entry): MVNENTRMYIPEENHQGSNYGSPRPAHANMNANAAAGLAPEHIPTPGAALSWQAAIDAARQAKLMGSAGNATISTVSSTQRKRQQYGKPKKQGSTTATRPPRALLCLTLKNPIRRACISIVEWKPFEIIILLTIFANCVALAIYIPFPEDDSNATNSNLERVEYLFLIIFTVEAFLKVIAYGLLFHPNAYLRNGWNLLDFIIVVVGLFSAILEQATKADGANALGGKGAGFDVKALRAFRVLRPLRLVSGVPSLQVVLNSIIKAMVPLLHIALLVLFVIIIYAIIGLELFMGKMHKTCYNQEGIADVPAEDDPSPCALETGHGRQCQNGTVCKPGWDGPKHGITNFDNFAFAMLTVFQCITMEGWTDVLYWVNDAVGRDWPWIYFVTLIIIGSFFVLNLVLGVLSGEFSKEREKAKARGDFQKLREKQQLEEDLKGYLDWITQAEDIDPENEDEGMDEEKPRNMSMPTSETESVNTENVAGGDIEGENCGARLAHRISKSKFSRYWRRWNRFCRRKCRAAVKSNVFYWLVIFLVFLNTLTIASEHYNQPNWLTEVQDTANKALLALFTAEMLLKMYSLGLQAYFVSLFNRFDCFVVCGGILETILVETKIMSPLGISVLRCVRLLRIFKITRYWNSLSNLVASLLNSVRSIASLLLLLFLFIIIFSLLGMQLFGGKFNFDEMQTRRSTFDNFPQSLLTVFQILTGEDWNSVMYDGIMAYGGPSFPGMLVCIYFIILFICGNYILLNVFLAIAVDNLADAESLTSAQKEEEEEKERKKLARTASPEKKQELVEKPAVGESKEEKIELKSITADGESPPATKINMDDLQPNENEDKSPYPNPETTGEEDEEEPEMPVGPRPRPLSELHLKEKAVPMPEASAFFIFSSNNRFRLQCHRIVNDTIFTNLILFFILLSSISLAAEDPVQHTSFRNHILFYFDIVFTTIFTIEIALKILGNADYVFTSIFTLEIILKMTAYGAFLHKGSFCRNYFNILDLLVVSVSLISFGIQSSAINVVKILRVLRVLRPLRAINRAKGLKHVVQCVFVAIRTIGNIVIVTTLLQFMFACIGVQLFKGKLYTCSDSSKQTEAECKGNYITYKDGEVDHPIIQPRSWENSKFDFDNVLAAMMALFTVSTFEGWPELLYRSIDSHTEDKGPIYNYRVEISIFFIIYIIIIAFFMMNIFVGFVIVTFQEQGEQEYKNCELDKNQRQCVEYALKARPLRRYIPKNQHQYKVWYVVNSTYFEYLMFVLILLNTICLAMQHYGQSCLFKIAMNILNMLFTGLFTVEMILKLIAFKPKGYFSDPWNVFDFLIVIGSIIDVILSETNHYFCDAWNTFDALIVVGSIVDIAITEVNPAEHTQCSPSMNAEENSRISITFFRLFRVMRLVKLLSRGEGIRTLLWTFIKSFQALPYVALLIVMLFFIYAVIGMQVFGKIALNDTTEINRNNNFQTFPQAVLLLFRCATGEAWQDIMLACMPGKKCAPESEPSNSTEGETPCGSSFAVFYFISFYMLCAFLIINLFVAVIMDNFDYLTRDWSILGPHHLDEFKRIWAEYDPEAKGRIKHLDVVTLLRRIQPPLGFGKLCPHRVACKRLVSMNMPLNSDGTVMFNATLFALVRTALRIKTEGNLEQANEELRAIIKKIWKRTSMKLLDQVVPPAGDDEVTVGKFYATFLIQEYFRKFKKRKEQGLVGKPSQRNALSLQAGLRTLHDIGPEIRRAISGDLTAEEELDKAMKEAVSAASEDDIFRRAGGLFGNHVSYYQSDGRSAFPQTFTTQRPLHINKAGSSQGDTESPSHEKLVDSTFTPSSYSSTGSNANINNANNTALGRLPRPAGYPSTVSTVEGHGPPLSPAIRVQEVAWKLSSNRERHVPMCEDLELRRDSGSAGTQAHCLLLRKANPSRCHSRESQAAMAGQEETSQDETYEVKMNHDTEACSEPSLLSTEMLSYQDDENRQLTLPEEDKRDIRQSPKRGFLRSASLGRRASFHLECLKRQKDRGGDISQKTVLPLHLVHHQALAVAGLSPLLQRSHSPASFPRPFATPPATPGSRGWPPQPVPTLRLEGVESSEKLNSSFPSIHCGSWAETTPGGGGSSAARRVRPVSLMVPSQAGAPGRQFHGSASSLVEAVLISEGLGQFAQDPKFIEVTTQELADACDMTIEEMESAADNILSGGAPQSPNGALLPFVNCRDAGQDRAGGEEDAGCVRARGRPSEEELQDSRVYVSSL
# T2 sequence (Q08289 whole entry partner): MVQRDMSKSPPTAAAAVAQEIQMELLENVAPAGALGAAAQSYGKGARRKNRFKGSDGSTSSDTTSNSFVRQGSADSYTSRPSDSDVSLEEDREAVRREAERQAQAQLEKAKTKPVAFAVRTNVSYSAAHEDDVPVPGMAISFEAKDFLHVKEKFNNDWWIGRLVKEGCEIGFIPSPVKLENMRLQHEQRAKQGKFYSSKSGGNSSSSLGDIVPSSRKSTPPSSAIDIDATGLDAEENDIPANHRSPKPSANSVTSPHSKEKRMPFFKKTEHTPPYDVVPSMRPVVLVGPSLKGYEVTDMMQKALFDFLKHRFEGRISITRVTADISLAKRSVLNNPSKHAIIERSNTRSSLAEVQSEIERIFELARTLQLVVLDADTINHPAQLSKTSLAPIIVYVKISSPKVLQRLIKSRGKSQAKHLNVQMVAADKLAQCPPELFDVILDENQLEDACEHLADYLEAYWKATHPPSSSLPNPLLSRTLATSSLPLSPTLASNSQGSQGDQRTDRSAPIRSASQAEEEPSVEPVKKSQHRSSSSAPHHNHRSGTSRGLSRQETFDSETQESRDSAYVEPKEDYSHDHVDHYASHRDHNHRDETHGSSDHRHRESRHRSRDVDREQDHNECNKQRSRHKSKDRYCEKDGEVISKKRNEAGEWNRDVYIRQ
# T2 sequence (P54289 25-946 partner limits assumed): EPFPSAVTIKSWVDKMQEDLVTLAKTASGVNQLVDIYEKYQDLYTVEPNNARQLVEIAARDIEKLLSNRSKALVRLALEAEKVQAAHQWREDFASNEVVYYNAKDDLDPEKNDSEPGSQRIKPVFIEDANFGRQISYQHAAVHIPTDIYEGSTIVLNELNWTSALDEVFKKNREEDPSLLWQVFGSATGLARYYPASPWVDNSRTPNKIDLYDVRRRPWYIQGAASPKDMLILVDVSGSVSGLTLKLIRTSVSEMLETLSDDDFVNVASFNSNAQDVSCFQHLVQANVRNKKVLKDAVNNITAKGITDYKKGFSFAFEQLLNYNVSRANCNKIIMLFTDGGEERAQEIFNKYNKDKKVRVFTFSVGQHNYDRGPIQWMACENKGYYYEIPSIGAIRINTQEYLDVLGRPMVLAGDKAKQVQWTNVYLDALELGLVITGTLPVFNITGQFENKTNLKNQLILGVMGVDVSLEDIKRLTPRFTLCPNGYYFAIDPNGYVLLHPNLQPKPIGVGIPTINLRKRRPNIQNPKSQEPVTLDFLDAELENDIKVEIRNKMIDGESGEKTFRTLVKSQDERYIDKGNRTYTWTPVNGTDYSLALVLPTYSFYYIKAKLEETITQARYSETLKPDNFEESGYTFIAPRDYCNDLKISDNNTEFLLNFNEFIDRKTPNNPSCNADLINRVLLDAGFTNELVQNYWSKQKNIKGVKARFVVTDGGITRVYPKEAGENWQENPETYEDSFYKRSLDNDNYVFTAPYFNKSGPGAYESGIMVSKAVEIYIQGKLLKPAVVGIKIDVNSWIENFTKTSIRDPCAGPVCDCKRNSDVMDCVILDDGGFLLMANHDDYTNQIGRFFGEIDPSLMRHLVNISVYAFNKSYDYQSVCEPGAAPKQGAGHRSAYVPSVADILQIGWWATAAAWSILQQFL
# T2 sequence (P54289 947-1103 partner limits assumed): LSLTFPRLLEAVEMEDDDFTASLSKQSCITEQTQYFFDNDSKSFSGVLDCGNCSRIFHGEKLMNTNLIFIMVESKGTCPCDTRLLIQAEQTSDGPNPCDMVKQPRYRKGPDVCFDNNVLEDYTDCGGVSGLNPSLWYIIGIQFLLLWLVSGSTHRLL
# Description: Manual patch‐clamp recordings of membrane currents (I NCX, L‐type Ca^2+ channel current [I CaL], human cardiac sodium 1.5 current [I Na], and I hERG) were undertaken using either an Axopatch 200B or Axopatch ID amplifier (Molecular Devices, USA), using the whole‐cell configuration. Cells were at least initially (except when recording I Na) perfused with an extracellular solution consisting of (in mM) 143 NaCl, 4 KCl, 1.8 CaCl2, 1.2 MgCl2, 5 glucose, and 10 HEPES (pH 7.4 with NaOH; osmolarity adjusted to 301 ± 3 mOsm). A slightly modified version was used for the rat ventricular CMs (in mM: 144 NaCl, 0.4 NaH2PO4, 4.0 KCl, 1.8 CaCl2, 0.53 MgSO4, 5.5 glucose, and 5.0 HEPES). Patch pipettes were pulled with a P‐2000 or P‐97 micropipette puller (Sutter Instruments, USA) from borosilicate glass capillaries and had resistances of between 2 and 4 MΩ when filled with any of the pipette solutions (see below). The data were filtered at 1 or 2 kHz and digitized at 10 kHz with acquisition and analysis performed by use of pClamp software (Versions 8–10; Molecular Devices; RRID:SCR_011323).
# I CaL was recorded from hiPSC‐derived CMs (at room temperature, n = 2) and rat ventricular myocytes at 1 μM (n = 3; 5 cells) and at 10 μM (n = 4; 6 cells) in an extracellular solution supplemented with 4‐aminopyridine (3 mM) at 37 °C. […]
smiles,measurement,setting,value
Nc1cccc(-c2ccc(CNc3ccc(F)cc3)o2)c1 [ORM‐11372],HR,healthy rabbits,did not have any effects
same,cardiac relaxation,healthy rabbits,did not have any effects
same,systolic BP,healthy rabbits,did not have any effects
same,increase in cardiac contractility (LV + dP/dt max),healthy rabbits; infusion 833 μg·kg^−1·min^−1,35 ± 8%
same,pIC50,[1],5.77
same,inhibition at 1 µM,[2],14.1%
